{"source": "paper PMC10744608", "about": "“Simplified Synthesis of Renieramycin T Derivatives to Target Cancer Stem Cells via β-Catenin Proteasomal Degradation in Human Lung Cancer” (Marine Drugs, 2023)", "format_in_all_cases": "cell-based, human", "key": {"[1]": {"test_system": "NSCLC cells (A549, H23, and H292)", "assay": "MTT cell viability assay, statements over all lung cancer lines", "conditions": "summary over A549, H23 and H292, 24 h", "procedure": "(§1) The cell viability was assessed using an MTT assay, determining the half-maximal inhibitory concentration (IC50) to screen right-half RT analogs (DH_18, DH_21, DH_32, DH_35, DH_38, and DH_39). Human NSCLC cells (A549, H23, and H292) were seeded in a 96-well cell culture plate at a density of 1 × 10^4 cells per well and incubated for 24 h at 37 °C. Subsequently, the culture medium was aspirated, and a complete medium with varying concentrations (0–100 μM) of right-half RT analogs was added for 24 h. Following the removal of the compound-containing medium, an MTT reagent at a concentration of 4 mg/mL was applied and incubated for 3 h at 37 °C. The MTT reagent was replaced with 100 μL of DMSO to dissolve the formazan crystals. The measurement of the formazan product was conducted at 570 nm utilizing a microplate reader. RT served as the positive control in this experiment."}, "A549 cells": {"test_system": "A549 cells", "assay": "MTT cell viability assay", "conditions": "Homo sapiens, A549, 24 h treatment", "procedure": "as §1"}, "H23 cells": {"test_system": "H23 cells", "assay": "MTT cell viability assay", "conditions": "Homo sapiens, NCI-H23, H23, 24 h treatment", "procedure": "as §1"}, "H292 cells": {"test_system": "H292 cells", "assay": "MTT cell viability assay", "conditions": "Homo sapiens, NCI-H292, H292, 24 h treatment", "procedure": "as §1"}, "[2]": {"test_system": "CSC spheroids of A549, H23, and H292 cells", "assay": "3D CSC spheroid formation with immunofluorescence", "conditions": "50 nM, 24 h, immunofluorescence", "procedure": "A three-dimensional (3D) spheroid was employed to generate the spheroids containing CSC subpopulations from lung cancer cells. For CSC-rich population establishment, the spheroid culture assay used in this study was slightly modified from a previously described method. Lung cancer cells, specifically NSCLC cells (A549, H23, and H292), were seeded onto a 24-well ultra-low attachment plate, with approximately density of 2.5 × 10^3 cells per well in a medium with a 1% FBS and Nutristem mix. The primary spheroids were allowed to form for 7 days. Every 2 days, fresh medium with 1% FBS and Nutristem mix was replenished. On day 7 of primary spheroid culture, primary spheroids were resuspended into single cells using trypsin, and again 2.5 × 10^3 cells/well were seeded into a 24-well ultra-low attachment plate. Secondary spheroids were allowed to form for 10 days. After 10 days, the secondary spheroids were treated with 50 nM concentration DH_32 for 24 h treatment. The spheroids that had undergone treatment were retrieved through centrifugation at 1000× g for 30 s and then rinsed with PBS. The spheroids were fixed with 4% paraformaldehyde in a 50 μL PBS solution for 20 min at room temperature, and then they were made permeable by treating them with 0.1% Triton X in PBS for 5 min at room temperature. The spheroids were exposed to a mixture of 5% FBS and 2% BSA in PBS for 1 h at room temperature to prevent non-specific protein interactions. Subsequently, the spheroids were incubated with primary antibodies (CD133, CD44, and OCT4) at a 1:250 dilution in a 30 μL PBS solution containing 2.5% FBS and 1% BSA, and this incubation took place overnight at 4 °C. On the subsequent day, the spheroids were rinsed with PBS and then exposed to secondary antibodies (Alexa Fluor 594-conjugated goat anti-rabbit IgG (H+L) and Alexa Fluor 488-conjugated goat anti-mouse IgG (H+L)) at a 1:500 dilution in a 30 μL PBS solution containing 2.5% FBS and 1% BSA at room temperature for 1 h 30 min. These spheroids were subjected to staining with Hoechst 33342 (Sigma, St. Louis, MO, USA) at a concentration of 10 μg/mL for a duration of 15 min at room temperature. Subsequently, the fluorescence signals were observed using a fluorescence microscope (Olympus IX 51 with DP70; Olympus America Inc., Center Valley, PA, USA). The intensity of fluorescence was quantified using Image J software. NSCLC spheroids treated with RT at 50 nM and cisplatin at 50 nM served as the positive control."}}}
{"smiles": "C#CCN1C[C@H]2C3=C(C[C@@H]([C@@H]1C#N)N2C)C(=O)C(C)=C(OC)C3=O", "note": "[DH_35, (1R,4R,5S)-9-methoxy-8,11-dimethyl-7,10-dioxo-3-(prop-2-yn-1-yl)-1,2,3,4,5,6,7,10-octahydro-1,5-epiminobenzo[d]azocine-4-carbonitrile]", "values": [{"measurement": "IC50", "setting": "[1]; Homo sapiens, 24 h", "result": "28 to 77", "unit": "µM"}, {"measurement": "IC50", "setting": "A549 cells", "result": "76.3 ± 2.98", "unit": "µM"}, {"measurement": "IC50", "setting": "H23 cells", "result": "56 ± 1.78", "unit": "µM"}, {"measurement": "IC50", "setting": "H292 cells", "result": "57.7 ± 1.45", "unit": "µM"}]}
{"smiles": "COC1=C(C)C(=O)C2=C(C1=O)[C@@H]1CN(CCO)[C@@H](C#N)[C@H](C2)N1C", "note": "[DH_38, (1R,4R,5S)-3-(2-hydroxyethyl)-9-methoxy-8,11-dimethyl-7,10-dioxo-1,2,3,4,5,6,7,10-octahydro-1,5-epiminobenzo[d]azocine-4-carbonitrile]", "values": [{"measurement": "IC50", "setting": "[1]; Homo sapiens, 24 h", "result": "28 to 77", "unit": "µM"}, {"measurement": "IC50", "setting": "A549 cells", "result": "43.8 ± 1.43", "unit": "µM"}, {"measurement": "IC50", "setting": "H23 cells", "result": "50.4 ± 1.18", "unit": "µM"}, {"measurement": "IC50", "setting": "H292 cells", "result": "43.7 ± 0.86", "unit": "µM"}]}
{"smiles": "N.N.[Cl][Pt][Cl]", "note": "[cisplatin, reference compound]", "values": [{"measurement": "levels of CD133, CD44, and OCT4 in CSC spheroids", "setting": "[2]", "result": "could not alter CSC markers"}]}
{"smiles": "COC1=C(C)C(=O)C2=C(C1=O)[C@@H]1CN(Cc3ccccn3)[C@@H](C#N)[C@H](C2)N1C", "note": "[DH_18, (1R,4R,5S)-9-methoxy-8,11-dimethyl-7,10-dioxo-3-(pyridin-2-ylmethyl)-1,2,3,4,5,6,7,10-octahydro-1,5-epiminobenzo[d]azocine-4-carbonitrile]", "values": [{"measurement": "IC50", "setting": "[1]; Homo sapiens, 24 h", "result": "28 to 77", "unit": "µM"}, {"measurement": "IC50", "setting": "[1]", "result": "~30", "unit": "µM"}, {"measurement": "IC50", "setting": "A549 cells", "result": "28 ± 0.86", "unit": "µM"}, {"measurement": "IC50", "setting": "H23 cells", "result": "28.1 ± 0.83", "unit": "µM"}, {"measurement": "IC50", "setting": "H292 cells", "result": "29.5 ± 0.75", "unit": "µM"}]}
{"smiles": "COC1=C(C)C(=O)C2=C(C1=O)[C@@H]1CN(CCN3C(=O)c4ccccc4C3=O)[C@@H](C#N)[C@H](C2)N1C", "note": "[DH_39, (1R,4R,5S)-3-(2-{1,3-dioxoisoindolin-2-yl}ethyl)-9-methoxy-8,11-dimethyl-7,10-dioxo-1,2,3,4,5,6,7,10-octahydro-1,5-epiminobenzo[d]azocine-4-carbonitrile]", "values": [{"measurement": "IC50", "setting": "[1]; Homo sapiens, 24 h", "result": "28 to 77", "unit": "µM"}, {"measurement": "IC50", "setting": "A549 cells", "result": "70 ± 0.85", "unit": "µM"}, {"measurement": "IC50", "setting": "H23 cells", "result": "73.3 ± 1.17", "unit": "µM"}, {"measurement": "IC50", "setting": "H292 cells", "result": "65.4 ± 1.13", "unit": "µM"}]}
{"smiles": "COC1=C(C)C(=O)C2=C(C1=O)[C@@H]1CN(Cc3cccnc3)[C@@H](C#N)[C@H](C2)N1C", "note": "[DH_21, (1R,4R,5S)-9-methoxy-8,11-dimethyl-7,10-dioxo-3-(pyridin-3-ylmethyl)-1,2,3,4,5,6,7,10-octahydro-1,5-epiminobenzo[d]azocine-4-carbonitrile]", "values": [{"measurement": "IC50", "setting": "[1]; Homo sapiens, 24 h", "result": "28 to 77", "unit": "µM"}, {"measurement": "IC50", "setting": "A549 cells", "result": "51.4 ± 1.5", "unit": "µM"}, {"measurement": "IC50", "setting": "H23 cells", "result": "49.4 ± 1.01", "unit": "µM"}, {"measurement": "IC50", "setting": "H292 cells", "result": "54.1 ± 1.15", "unit": "µM"}]}
